In ChEMBL document CHEMBL5303766, “Data for DCP probe FHT-2344” (2022):

Experiments:
Settings in all cases: for ΔTm: Compound concentration 10.0 uM
[1] = target: T1, Cyclin-G-associated kinase (Homo sapiens) (UniProt O14976); assay: GAK SGC Tm panel (DSF)
T1 sequence (whole entry): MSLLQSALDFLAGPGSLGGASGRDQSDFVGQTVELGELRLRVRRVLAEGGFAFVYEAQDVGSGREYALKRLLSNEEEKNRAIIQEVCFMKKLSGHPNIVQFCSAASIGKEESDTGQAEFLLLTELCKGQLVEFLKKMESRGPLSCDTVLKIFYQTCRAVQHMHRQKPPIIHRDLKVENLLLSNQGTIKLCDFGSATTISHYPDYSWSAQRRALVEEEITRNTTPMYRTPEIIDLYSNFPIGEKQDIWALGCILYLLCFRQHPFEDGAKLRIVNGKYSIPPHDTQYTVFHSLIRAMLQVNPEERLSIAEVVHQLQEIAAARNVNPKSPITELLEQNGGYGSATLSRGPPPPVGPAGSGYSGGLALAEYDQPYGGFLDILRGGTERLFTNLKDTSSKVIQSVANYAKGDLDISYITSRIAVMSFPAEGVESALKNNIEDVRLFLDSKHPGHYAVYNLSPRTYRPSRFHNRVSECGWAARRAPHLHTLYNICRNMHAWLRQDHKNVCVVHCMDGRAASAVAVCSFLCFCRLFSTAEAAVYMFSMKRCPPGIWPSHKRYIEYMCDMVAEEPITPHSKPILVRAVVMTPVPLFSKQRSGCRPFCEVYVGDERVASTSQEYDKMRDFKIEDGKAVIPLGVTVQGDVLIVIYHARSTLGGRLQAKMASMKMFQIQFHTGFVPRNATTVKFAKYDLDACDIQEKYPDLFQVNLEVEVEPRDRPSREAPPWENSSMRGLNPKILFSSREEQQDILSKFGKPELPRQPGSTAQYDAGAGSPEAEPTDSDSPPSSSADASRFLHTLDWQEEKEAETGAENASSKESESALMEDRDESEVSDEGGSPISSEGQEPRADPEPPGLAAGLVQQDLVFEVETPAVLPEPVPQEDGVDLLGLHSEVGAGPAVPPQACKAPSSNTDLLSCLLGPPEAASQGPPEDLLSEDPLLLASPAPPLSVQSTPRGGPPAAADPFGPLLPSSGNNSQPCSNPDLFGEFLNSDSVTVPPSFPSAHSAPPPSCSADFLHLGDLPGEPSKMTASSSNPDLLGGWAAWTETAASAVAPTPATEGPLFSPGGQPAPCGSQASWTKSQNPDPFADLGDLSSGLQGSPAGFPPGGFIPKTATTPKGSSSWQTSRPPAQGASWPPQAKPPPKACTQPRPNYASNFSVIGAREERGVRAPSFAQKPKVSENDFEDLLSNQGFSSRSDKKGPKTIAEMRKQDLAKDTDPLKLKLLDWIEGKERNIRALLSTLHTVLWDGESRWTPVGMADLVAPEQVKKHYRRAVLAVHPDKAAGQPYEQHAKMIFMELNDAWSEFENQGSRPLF

[2] = target: Calcium/calmodulin-dependent protein kinase type 1D (Homo sapiens) (UniProt Q8IU85); assay: CAMK1D SGC Tm panel (DSF)
[3] = target: Calcium/calmodulin-dependent protein kinase type 1G (Homo sapiens) (UniProt Q96NX5); assay: CAMK1G SGC Tm panel (DSF)
[4] = target: T2, Transcription intermediary factor 1-alpha (Homo sapiens) (UniProt O15164); assay: TIF1 SGC Tm panel (DSF)
T2 sequence (whole entry): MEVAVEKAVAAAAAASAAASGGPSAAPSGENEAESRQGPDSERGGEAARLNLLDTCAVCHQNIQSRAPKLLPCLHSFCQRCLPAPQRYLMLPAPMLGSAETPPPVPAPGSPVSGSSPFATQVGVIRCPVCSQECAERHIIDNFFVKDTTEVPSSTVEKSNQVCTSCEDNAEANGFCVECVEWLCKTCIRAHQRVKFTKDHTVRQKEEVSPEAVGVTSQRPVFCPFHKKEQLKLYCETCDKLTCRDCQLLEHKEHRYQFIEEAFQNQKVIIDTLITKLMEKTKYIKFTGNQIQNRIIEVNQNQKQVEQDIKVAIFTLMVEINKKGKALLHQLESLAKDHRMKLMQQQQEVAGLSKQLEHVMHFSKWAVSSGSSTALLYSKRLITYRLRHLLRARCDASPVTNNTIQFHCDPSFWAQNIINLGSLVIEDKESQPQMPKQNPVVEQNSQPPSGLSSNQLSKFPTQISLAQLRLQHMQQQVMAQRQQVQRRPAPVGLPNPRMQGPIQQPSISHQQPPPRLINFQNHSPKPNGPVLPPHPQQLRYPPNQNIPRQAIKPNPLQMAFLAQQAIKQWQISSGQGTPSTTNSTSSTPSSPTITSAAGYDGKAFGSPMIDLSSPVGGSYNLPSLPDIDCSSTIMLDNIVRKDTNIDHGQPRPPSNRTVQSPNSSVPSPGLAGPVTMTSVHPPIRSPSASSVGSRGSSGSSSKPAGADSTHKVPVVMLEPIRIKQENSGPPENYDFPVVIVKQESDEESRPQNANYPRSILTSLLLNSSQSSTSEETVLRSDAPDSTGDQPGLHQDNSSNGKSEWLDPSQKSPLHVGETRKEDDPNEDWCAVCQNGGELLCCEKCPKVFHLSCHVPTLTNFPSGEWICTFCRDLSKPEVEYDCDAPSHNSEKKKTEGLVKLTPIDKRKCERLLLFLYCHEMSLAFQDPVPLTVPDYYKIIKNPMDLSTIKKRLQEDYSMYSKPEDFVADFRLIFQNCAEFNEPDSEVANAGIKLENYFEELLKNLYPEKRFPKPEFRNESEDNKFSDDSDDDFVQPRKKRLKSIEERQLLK

[5] = target: T3, Mitogen-activated protein kinase 15 (Homo sapiens) (UniProt Q8TD08); assay: MAPK15 SGC Tm panel (DSF)
T3 sequence (whole entry): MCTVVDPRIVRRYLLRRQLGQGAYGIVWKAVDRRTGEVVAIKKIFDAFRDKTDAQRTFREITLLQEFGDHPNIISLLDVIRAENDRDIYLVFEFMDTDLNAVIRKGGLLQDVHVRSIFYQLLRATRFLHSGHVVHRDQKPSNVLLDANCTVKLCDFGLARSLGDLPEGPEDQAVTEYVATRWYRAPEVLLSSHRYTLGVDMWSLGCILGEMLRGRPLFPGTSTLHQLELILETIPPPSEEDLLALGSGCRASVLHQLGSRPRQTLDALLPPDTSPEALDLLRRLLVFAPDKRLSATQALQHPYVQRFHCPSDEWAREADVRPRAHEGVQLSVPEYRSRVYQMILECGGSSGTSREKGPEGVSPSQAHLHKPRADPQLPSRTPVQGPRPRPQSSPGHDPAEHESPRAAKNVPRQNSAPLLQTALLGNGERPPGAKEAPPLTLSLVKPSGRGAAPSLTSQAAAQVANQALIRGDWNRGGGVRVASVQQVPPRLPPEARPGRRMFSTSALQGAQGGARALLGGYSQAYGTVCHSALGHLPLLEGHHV

Chain of Calcium/calmodulin-dependent protein kinase type 1G (Homo sapiens) (Q96NX5 whole entry): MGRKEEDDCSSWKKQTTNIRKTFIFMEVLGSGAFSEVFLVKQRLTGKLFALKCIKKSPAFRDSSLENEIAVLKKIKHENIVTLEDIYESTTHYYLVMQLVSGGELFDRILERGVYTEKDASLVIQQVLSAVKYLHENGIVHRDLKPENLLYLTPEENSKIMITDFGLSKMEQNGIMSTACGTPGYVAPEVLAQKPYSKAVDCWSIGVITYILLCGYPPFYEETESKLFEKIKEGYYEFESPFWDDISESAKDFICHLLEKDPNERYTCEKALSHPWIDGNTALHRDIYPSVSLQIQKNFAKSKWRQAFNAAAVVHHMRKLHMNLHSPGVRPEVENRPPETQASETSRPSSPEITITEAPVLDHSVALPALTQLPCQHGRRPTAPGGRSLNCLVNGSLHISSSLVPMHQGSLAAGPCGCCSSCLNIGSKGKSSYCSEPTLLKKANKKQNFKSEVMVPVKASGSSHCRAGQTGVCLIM
Chain of Calcium/calmodulin-dependent protein kinase type 1D (Homo sapiens) (Q8IU85 whole entry, looked up): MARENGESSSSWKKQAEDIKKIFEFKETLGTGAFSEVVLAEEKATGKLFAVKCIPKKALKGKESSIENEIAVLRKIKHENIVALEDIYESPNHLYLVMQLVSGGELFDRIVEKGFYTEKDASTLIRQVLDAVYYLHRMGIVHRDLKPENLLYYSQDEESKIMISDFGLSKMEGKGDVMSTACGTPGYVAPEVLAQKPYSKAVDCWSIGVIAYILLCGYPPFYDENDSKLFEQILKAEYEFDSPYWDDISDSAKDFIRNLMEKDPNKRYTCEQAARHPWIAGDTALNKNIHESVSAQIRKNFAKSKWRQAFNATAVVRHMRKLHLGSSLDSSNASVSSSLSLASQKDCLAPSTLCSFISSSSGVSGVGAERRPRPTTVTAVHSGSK

| Compound | delta Tm Staurosporine positive control [1] | ΔTm [1] | delta Tm Staurosporine positive control [2] | ΔTm [2] | delta Tm Staurosporine positive control [3] | ΔTm [3] | delta Tm Staurosporine positive control [4] | ΔTm [4] | delta Tm Staurosporine positive control [5] | ΔTm [5] |
| --- | --- | --- | --- | --- | --- | --- | --- | --- | --- | --- |
| COC[C@H](NC(=O)c1ccn(S(C)(=O)=O)c1)C(=O)Nc1nc(-c2cccc(-c3ccn(C)n3)c2)cs1 | 8.71 | -0.217 | 10.8 | 0.174 | 13.3 | -0.0351 | 2.51 | 1.43 | 15 | 0.94 |
| C[C@H](NC(=O)c1cn(C2(C#N)CC2)cn1)C(=O)Nc1nc(-c2cccc(-c3ccn(C)n3)c2)cs1 | 8.71 | -0.0366 | 10.8 | 0.455 | 13.3 | 0.371 | 2.51 | 1.18 | 15 | 1.05 |
